Experimental data: patent US4448730A, “Hydroxybenzohydroxamic acids, benzamides and esters and related compounds as ribonucleotide reductase inhibitors” (priority 1982, dated 1984)
Where “and” joins values, the source holds several entries; their conditions need not be identical. Equal values may be shown once. Read-outs that look alike come from different tables or passages of the source.

Key:
colon 38 tumor = assay: Inhibition of growth of colon tumor C8 (colon 38); format: in vivo, mice
Description: (§1) The same two compounds were effective in inhibiting the growth of the following transplanted tumors--B16 melanoma, M-1 human breast xenograft, LX-1 human lung xenograft, CD8F mammary tumor and colon 38 tumor--as follows: […]

L-5563 lymphoma = assay: Activity vs. L-5563 lymphoma (Table 6); details: 100 mg/kg; once or twice daily for 9-10 days
Method: (§3) All compounds were administered once or twice daily for 9-10 days starting 24 hours after inoculation with the tumor.

CA-755 adenocarcinoma = assay: Activity vs. CA-755 adenocarcinoma (Table 7); format: in vivo, mice; details: once or twice daily for 9-10 days
Method: as §3

L-1210 Leukemia [1] = format: in vivo, mice
Method: In a series of studies against L-1210 leukemia, in addition to those studies set forth in Table 2 and 4, 3,4-dihydroxybenzohydroxamic acid gave the following increases in survival times at the dose levels specified. Drug was administered daily for nine days.
Similar data for 3,4,5-trihydroxybenzohydroxamic acid are as follows: […]

B16 melanoma = assay: B16 melanoma, increase in survival; format: in vivo, mice
Description: as §1

ribonucleotide reductase = target: T1, ribonucleotide reductase (Rattus norvegicus, UniProt Q4KLN6); assay: Inhibition of ribonucleotide reductase (conversion of CDP to dCDP), enzyme partially purified from Novikoff hepatoma; format: biochemical
T1 construct: partially purified from Novikoff hepatoma; from tissue; host or cells: Novikoff hepatoma (rat tumour), partially purified enzyme
T1 sequence (Q4KLN6 1-390): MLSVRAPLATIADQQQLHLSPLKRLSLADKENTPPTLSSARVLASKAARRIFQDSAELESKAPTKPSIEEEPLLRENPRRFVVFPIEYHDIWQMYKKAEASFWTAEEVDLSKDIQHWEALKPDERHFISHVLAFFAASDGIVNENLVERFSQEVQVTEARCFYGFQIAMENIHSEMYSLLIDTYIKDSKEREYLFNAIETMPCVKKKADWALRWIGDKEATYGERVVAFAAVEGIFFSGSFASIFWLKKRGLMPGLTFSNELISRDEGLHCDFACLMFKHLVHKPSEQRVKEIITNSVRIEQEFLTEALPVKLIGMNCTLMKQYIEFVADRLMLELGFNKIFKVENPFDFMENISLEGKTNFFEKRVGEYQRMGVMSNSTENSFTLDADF
Description: (§2) Table 2 gives ribonucleotide reductase data for certain compounds of formula I. In the table, column 1 gives the substitution pattern in the benzene ring, column 2, the R^1 group, column 3, the ID50 (inhibitory dose in micromolar concentration which inhibits ribonucleotide reductase by 50%), column 4, the average percent (± standard error) increase in the life span (ILS) of 8 treated mice inoculated with L1210 leukemia compared with 8 control mice also inoculated with L1210. The daily dose level of the drug which was administered for 8 days is indicated in column 5. Table 3 gives the relative potency of the compounds represented by formula I above as inhibitors of ribonucleotide reductase compared to hydroxyurea whose potency was given an arbitrary value of 1.0. In table 3, column 1 gives the name of the compound and column 2 the relative inhibitory potency of each of the compounds of column 1.
In the above determination of ID50 's in Table 3, ribonucleotide reductase is partially purified from Novikoff hepatoma by a procedure similar to that set forth by Elford et al. J. Biol. Chem. 245, 5228 (1970). The activity of the enzyme was measured by a slightly modified assay procedure originally developed by Reichard et al. id, 236, 1150 […]. This procedure measures the conversion of CDP to dCDP. The assay mixture (0.34 ml.) contains 3 μCi of [^3 H] CDP (specific activity […]), 3.3 μmole ATP, 5.9 μmoles magnesium chloride, 8.8 μmoles Hepes buffer at pH=7.5, 15 μmoles dithiothreitol and enzyme protein between 0.4 and 1.3 mg. Incubation was provided for forty minutes at 30° C. Ion exchange chromatography employing Dowex 50 (H^+) resin is used to separate the product from the substrate. The inhibitors were dissolved in water and a mixture of water and up to 1 % ethanol or 2% dimethylsulfoxide, neither one of which inhibited the enzyme at these concentrations. Each inhibitor was tested at a minimum of three concentrations and the active compounds reassayed at least one additional time. ID50 's in μmoles were estimated from graphs summarizing results for each compound.

L-1210 Leukemia [2] = format: in vivo, mice; details: once or twice daily for 9-10 days
Method: as §3

L1210 leukemia = L1210 leukemia in mice, increase in life span (Table 2); format: in vivo; details: Mus musculus, L1210, 192 h; 400 mg/kg daily for 8 days; read-out: ILS, average percent (± standard error) increase in life span
Description: As stated above, the compounds represented by formula I above have the ability to inhibit ribonucleotide reductase, an enzyme involved in the reductive conversion of ribonucleotides to deoxyribonucleotides. This enzymatic reaction is a rate controlling step in the biosynthetic pathway leading to DNA and cell replication. In general, the ribonucleotide reductase level is closely correlated with cellular replication.
as §2

P-388 leukemia = assay: Prolongation of life of mice inoculated with P-388 leukemia, dosing every fifth day; format: in vivo; details: 50-400 mg/kg every fifth day
CX-1 colon xenograft = assay: Activity against CX-1 colon xenograft; format: in vivo
Method: In addition, the compound 3,4-dihydroxybenzenehydroxamic acid was active against CX-1 colon xenograft using the following protocol:
0% tumor inhibition at 800 mg/kg dose level every fourth day,
3,4,5-trihydroxybenzohydroxamic acid gave the following results against the same tumor using the same protocol.

CD8F mammary tumor = assay: Inhibition of growth of CD8F mammary tumor; format: in vivo
Description: as §1

P388 Leukemia = assay: Activity vs. P388 Leukemia (Table 8); format: in vivo, mice; details: once or twice daily for 9-10 days
Method: as §3

Lewis Lung = assay: Activity vs. Lewis Lung (Table 5); format: in vivo, mice; details: 100 mg/kg; once or twice daily for 9-10 days
Method: as §3

[3] = test system: M-1 human breast xenograft; assay: Inhibition of growth of M-1 human breast xenograft; format: in vivo, mice
Description: as §1

O=C(NO)c1cc(O)c(O)c(O)c1 [3,4,5-trihydroxybenzohydroxamic acid]
inhibition (colon 38 tumor; 50 mg/kg): 20% | inhibition (colon 38 tumor; 100 mg/kg): 30% | inhibition (colon 38 tumor; 200 mg/kg): 32% | inhibition (colon 38 tumor; 400 mg/kg): 17% | inhibition (colon 38 tumor; 800 mg/kg): 60% | % inhibition (L-5563 lymphoma): 41% | % inhibition (CA-755 adenocarcinoma; 100 mg/kg): 28% | % inhibition (CA-755 adenocarcinoma; 150 mg/kg): 11% | % inhibition (CA-755 adenocarcinoma; 175 mg/kg): 29% | % increase in survival (L-1210 Leukemia [1]; 50 mg/kg daily for nine days): 27% and 29% | % increase in survival (L-1210 Leukemia [1]; 200 mg/kg daily for nine days): 54% and 56% | % increase in survival (L-1210 Leukemia [1]; 400 mg/kg daily for nine days): 0% and 4% | % increase in survival time (L-1210 Leukemia [1]; dose 800, similar data (daily for nine days)): 16% | increase in survival (B16 melanoma; 100 mg/kg): 14% | increase in survival (B16 melanoma; 200 mg/kg): 18% | IC50 (ribonucleotide reductase; CDP to dCDP, 40 min at 30° C, pH 7.5, enzyme from Novikoff hepatoma, read-out: ID50 (inhibitory dose which inhibits ribonucleotide reductase by 50%)): 10 µM | Inhibitory Potency for ribonucleotide reductase (ribonucleotide reductase; relative to hydroxyurea, given an arbitrary value of 1.0): 50 | % increase in survival time (L-1210 Leukemia [2]; 75 mg/kg): 60% | % increase in survival time (L-1210 Leukemia [2]; 100 mg/kg, listed as gallohydroxamic acid): 58% and 55% | % increase in survival time (L-1210 Leukemia [2]; 120 mg/kg): 54% | ILS at 400 mg/kg (L1210 leukemia): 53 ± 19% | prolongation of life (P-388 leukemia): 23-53% | tumor inhibition (CX-1 colon xenograft; 200 mg/kg every fourth day): 17% | tumor inhibition (CX-1 colon xenograft; 400 mg/kg every fourth day): 40% | tumor inhibition (CX-1 colon xenograft; 800 mg/kg every fourth day): 44% | inhibition (CD8F mammary tumor; 300 mg/kg): 0% | inhibition (CD8F mammary tumor; 600 mg/kg): 22% | % Prolongation (P388 Leukemia; 200 mg/kg): 62% | % Prolongation (P388 Leukemia; 225 mg/kg): 79% | % tumor inhibition (Lewis Lung): 40% | inhibition ([3]; 200 mg/kg): 69% | inhibition ([3]; 400 mg/kg): 21% | inhibition ([3]; 800 mg/kg): 56% | inhibition ([3]; 1600 mg/kg): 41%
